Row | SMILES | melting point
1 | CC(C)(C)c1cc(CCc2cc(F)ccc2NC(=O)NC2CCN(Cc3ccccc3)CC2)cc(C(C)(C)C)c1O | 108 to 109 °C
2 | CSC(=S)C1(c2cccc(C)n2)SCCCS1 | 92 °C
3 | Nc1ccccc1C1=NN(c2ccc(Cl)cc2)C(=O)C1 | 199 to 201 °C
4 | COC(=O)CC/C(C)=C/Cc1c(OC)c(C)c2c(c1C(=O)O)C(=O)OC2 | 169 to 170 °C
5 | CC#Cc1cn(C2OC(CO)C(O)C2O)c(=O)[nH]c1=O (configuration not stated) | 225 to 227 °C
6 | CCc1nn(C(=O)OC(C)(C)C)c2cc(-c3ccc4nnn(Cc5ccc6ncccc6c5)c4n3)ccc12 | 185 to 188 °C
7 | CC(C)c1ccc(NN)c(Cl)c1 | 64 to 66 °C
8 | CC(C)(O)CC(N)C1(c2ccc(Cl)cc2)CCC1 (configuration not stated) | 60 to 62 °C
9 | COCCN1Cc2cc(C(=O)O)ccc2N(C)C(CC(=O)O)C1=O (configuration not stated) | 228 to 230 °C
10 | O=C(O)C1CCc2c(Cc3ccc(Cl)cc3)cccc21 (configuration not stated) | 127 to 129 °C
11 | COc1cc(C)c(C(=O)c2c(Cl)cccc2Cl)cc1OC(C)(C)C | 102 °C
12 | Nc1c(F)c(F)c(F)c(F)c1S(=O)(=O)O | 272 to 276 °C
13 | COc1cc(C(=O)NS(=O)(=O)c2ccccc2C)ccc1Cc1cn(C)c2ccc(C(=O)O)cc12 | 255 to 257 °C
14 | CC(=O)OC1CSC(Oc2cncc(-c3cccnc3F)c2)C(OC(C)=O)C1OC(C)=O (configuration not stated) | 169 to 170 °C
15 | CSc1ccc(-c2nc(S)[nH]c2-c2ccc(SC)cc2)cc1 | 280 °C
16 | CC(C)(C)NC(=O)[C@@H]1CCCN1C(=O)[C@@H](O)[C@@H](N)Cc1ccccc1 | 159 to 161 °C
17 | COc1ccc(CN2CCN(C3=NC4(C=CC(=O)C=C4)C(c4ccc(OC)cc4)=C3)CC2)cc1 | 142 °C
18 | CC(=O)Oc1cccc2c(-c3cccs3)c3cccc(OC(C)=O)c3c(OC(C)=O)c12 | 260 °C
19 | CNC(=O)c1cc(-c2ccc(F)cc2)c2c3c(ccc2n1)OCO3 | 233 to 235 °C
20 | CN1CCN(c2cc3nc(C(C)(C)C)sc3cc2N)CC1 | 130 °C

Row | SMILES | melting point
21 | COc1ccc(C2=C(C=O)c3ccc(OC)cc3CC2)cc1 | 142 °C
22 | COC(=O)CN1CCc2[nH]c(=O)n3nc(-c4ccccc4F)nc3c2C1 | 265 to 266 °C
23 | CCCCc1nc2c(c(=O)[nH]1)CN(C(=O)C(C)(C)O)CC2 | 159 to 161 °C
24 | Oc1cccc2nc(Cc3ccccc3)[nH]c12 | 172 to 174 °C
25 | COCCc1cc([N+](=O)[O-])cc([N+](=O)[O-])c1 | 65 °C
26 | CCOC(=O)C1CCCN(C(=O)/C=C/c2ccc(Sc3ccc4c(c3)OCCO4)c([N+](=O)[O-])c2)C1 (configuration not stated) | 73 to 75 °C
27 | CC(=O)Nc1noc(C)c1Cl | 121 to 122 °C
28 | Cc1cccc(C(=O)OC2CCCCC2=O)c1 (configuration not stated) | 73 to 74 °C
29 | CC[C@]12CC[C@H]3[C@@H](CC(C)C4=CC(=O)CC[C@@H]43)[C@@H]1CCC2=O (some centres not stated) | 141 to 149 °C
30 | CC(Cc1ccc(OCc2cccc(C(=O)O)c2)cc1)NCCC(c1ccccc1)c1ccccc1 (configuration not stated) | 209 to 212 °C
31 | N#Cc1cnc2cc(-c3ccc(CN4CCOCC4)o3)ccc2c1Nc1ccc(Cl)cc1Cl | 118 to 120 °C
32 | O=C(NCCC1OCCO1)c1cc(Br)c(Br)[nH]1 | 155 to 157 °C
33 | Cc1ccc(N(c2ccc(C)cc2)c2ccc(C(O)(CCCO)CCCO)cc2)cc1 | 131 to 132 °C
34 | CC(=O)c1ccc(-c2ccc(F)cc2)c(F)c1 | 80 to 82.5 °C
35 | Fc1cccc2[nH]cc(C3CCC4(CC3)OCCO4)c12 | 161 to 162 °C
36 | COc1cc(Cl)cnc1OCC#Cc1ccc(Cl)nc1 | 94 °C
37 | CCOCCOc1cc(C(O)C#Cc2ccc(C(=O)O)c(O)c2)cc2c1C(C)(C)CCC2(C)C (configuration not stated) | 120 °C
38 | O=S(=O)(c1ccc(Cl)cc1)N1CCCC1c1ccc(F)c(Cl)c1 (racemic) | 119 °C
39 | CN1CCN(Cc2ccc(C(=O)O)cc2)CC1 | 310 to 312 °C
40 | CC(C)(C)OC(=O)N1CC=C(c2nc3c(Cl)cccc3s2)CC1 | 98 to 101 °C

Row | SMILES | melting point
41 | COc1ccc(C=Cc2ccc(CO)cc2)cc1 | 200 to 202 °C
42 | N=C(N)Nc1nc(-c2ccccc2[N+](=O)[O-])c2cc(Cl)ccc2n1 | 150 °C
43 | Cc1c(-c2ccc(C=CC(=O)OC(C)(C)C)cc2)nc2n1CCc1ccccc1C2OC1CCN(C)CC1 (configuration not stated) | 185 °C
44 | c1ccc2c3c([nH]c2c1)CCS3 | 152 to 155 °C
45 | Cc1cc2cc(CN3CCCC3)cnc2cc1NC(=O)c1ccc(-c2ccco2)cc1 | 154 °C
46 | CCCCCCCCCCCCc1nc(NC(=O)Nc2c(C(C)C)cccc2C(C)C)n[nH]1 | 154 to 164 °C
47 | O=C(O)c1cc2c(c(-c3ccccc3)c1)C(=O)OC2=S | 237 to 247 °C
48 | CSC(=NS(=O)(=O)c1ccccc1-c1ccccc1)SC | 115 to 117 °C
49 | CCOC(=O)c1cnn(-c2c(F)cc(C(F)(F)F)cc2Cl)c1N | 147 to 149 °C
50 | COCCN1CCN(c2ccc(N3C[C@H](CNC(C)=O)OC3=O)cc2F)CC1 | 144 to 146 °C
51 | c1ccc(Cn2ccnc2CC2COc3ccccc3O2)cc1 (configuration not stated) | 105 to 107 °C
52 | Nc1ncc(Sc2ccc([N+](=O)[O-])cc2)s1 | 162 to 164 °C
53 | Cc1c(C)c2ccc(OCCCN3CCN(Cc4ccc(Cl)cc4)CC3)cc2[nH]c1=O | 143 to 144 °C
54 | O=C(O)CCc1cn(Cc2cccc(C(=O)Nc3cccnc3)c2)nc1-c1ccccc1 | 131 to 132 °C
55 | Nc1ccc(NC(=O)NCc2ccc3c(c2)CN(C2CCC(=O)NC2=O)C3=O)cc1 (configuration not stated) | > 400 °C
56 | CNC(=S)N1Cc2ccccc2C2(Cc3ccccc3O2)C1 (configuration not stated) | 165 °C
57 | FC(F)C(F)(F)Oc1ccc(C=NNc2nc(Nc3ccc(OC(F)(F)F)cc3)nc(N3CCOCC3)n2)cc1 | 203 to 206 °C
58 | O=Cc1cc(-n2cnnn2)cc2ccoc12 | 174 to 175 °C

Next, values leading:

Row | melting point | SMILES
59 | 113 to 114 °C | COc1ccc2c(C)c(CCO)c(=O)oc2c1OC
60 | 138 to 139 °C | O=C(O)CCS(=O)(=O)CCCl
61 | 129 to 130 °C | O=C(Nc1ccccc1)c1ccc(OC(F)(F)F)c(Nc2cccc(C(F)(F)F)c2)c1
62 | 134 to 137 °C | O=C(Oc1cc(F)ccc1F)c1cc2ccccc2oc1=O
63 | 158 to 160 °C | Cc1nc(-c2ccc(C(F)(F)F)cc2)oc1CSc1ccc(CC(=O)O)cc1Cl
64 | 93 to 94 °C | CC1CCCN1c1nccc(Oc2ccc(NC(=O)c3cc(F)cc(N4CCCCC4)c3)c3ccccc23)n1 (configuration not stated)
65 | 240 to 242 °C | CC(=O)O[C@H]1C[C@@H](n2cnc3c(=O)[nH]cnc32)[C@H](O)[C@@H]1O (racemic)
66 | 119 to 120 °C | CCCCCCC1(c2ccccc2)CC(O)=CC(=O)O1 (configuration not stated)
67 | 112 °C | CC(Cl)c1nc2c(C(F)(F)F)cccc2c(=O)o1 (configuration not stated)
68 | > 143 °C | COC(=O)/C=C/c1ccc(/C=C/c2ccncc2)nc1
69 | 150 to 152 °C | CC(C)(C)OC(=O)NC1CCN(C(=O)C2CCN(C(=O)OCc3ccccc3)CC2)CC1
70 | 172 to 173 °C | CCc1ccc(-c2nc3ccccc3[nH]2)nc1
71 | 170 to 173 °C | Cn1ncnc1COc1nc2c(cc1-c1ccco1)nnn2-c1ccccc1F
72 | 203 °C | CN(C1CCC(O)CC1)S(=O)(=O)c1ccc(Nc2nccc(Nc3ccc(F)cc3)n2)cc1 (configuration not stated)
73 | 111 to 113 °C | COC(=O)C1(O)CC(CO)=NN1c1ncccc1Cl (configuration not stated)
74 | 108 to 110 °C | O=C(O)COC(c1ccc(Cl)cc1)c1ccc(Cl)cc1
75 | 107 to 109 °C | COC(=O)c1ccc(-n2cccn2)cc1
76 | 210 °C | COC(=O)c1nc2cc(C(F)(F)F)ccc2c(O)c1C(=O)OC
77 | 143 to 145 °C | O=C(Cc1ccccc1)Nc1ccc(CN2C(=O)[C@H]3CCC[C@H]3N(C(=O)CN3C(=O)c4ccccc4C3=O)c3ccccc32)cc1 (relative stereo)
78 | 164 to 165 °C | CN1CCC(O)(c2cccn2Cc2ccccc2F)CC1
79 | 187 to 188 °C | Cc1ccc(-c2c(-c3ccc(S(N)(=O)=O)cc3)cnn(-c3ccc(F)cc3)c2=O)cc1F
80 | 240 to 242 °C | Cc1cc(C)cc(Nn2c(-c3ccccc3)c(C)[nH]c2=S)c1

Row | melting point | SMILES
81 | 89 to 90 °C | CC(C)(C)OC(=O)NCC(O)c1ccco1 (configuration not stated)
82 | 219 to 223 °C | CN(Cc1ccc(NC(=O)C2=Cc3cc(-c4ccc5c(c4)OCO5)ccc3S(=O)(=O)CC2)cc1)C1CCC(=O)CC1
83 | 103 °C | COC(=O)CCCCCCC1=C(OC)C(=O)CC1=O
84 | 169 °C | CON1CCC(=Cc2cc(C(C)(C)C)c(O)c(C(C)(C)C)c2)C1=O
85 | 208 to 210 °C | CC12CCC(C(=O)O)=CC1=CCC1C2CCC2(C)C(C(=O)CCCc3ccccc3)CCC12 (configuration not stated)
86 | 211 to 213 °C | COc1ccc2c(=O)c3c(Cl)ccc([N+](=O)[O-])c3oc2c1
87 | 104 to 105 °C | COC(=O)Cc1ccc(C(F)(F)F)cc1[N+](=O)[O-]
88 | 117 °C | CS(=O)(=O)c1ccc(-c2cc(CCO[N+](=O)[O-])nn2C2CCCCC2)cc1
89 | 115 to 117 °C | O=C(O)CCOCC(I)=C(I)I
90 | 164 to 165 °C | Nc1ccc(C#Cc2c(F)c(F)nc(F)c2F)cc1
91 | 117 to 120 °C | Nc1cccc(NC(=O)C(=O)N2CCC(Cc3ccc(F)cc3)CC2)c1
92 | > 260 °C | Nc1nc(O)c2c(n1)NCC(CCc1ccc(C(=O)N[C@@H](CCC(=O)O)C(=O)O)[nH]1)C2 (some centres not stated)
93 | 99 to 101 °C | COc1cc(C(C)=O)c(O)cc1OCCCCl
94 | 202 to 203 °C | COc1cc(-c2cnc3[nH]cc(C(=O)NCC(C)O)c3n2)cc(OC)c1OC (configuration not stated)
95 | 116 °C | COc1ccc2cc(C(Br)Br)ccc2c1
96 | 168 to 170 °C | OC1CCN(c2ncc(-c3ccc(Cl)cc3)cn2)CC1
97 | 125 to 126 °C | C=CC(=O)NCC(C(C)=O)C(=O)c1ccccc1 (configuration not stated)
98 | 144 °C | C=CCc1cc(C(N)=NO)ccc1O
99 | 170 to 172 °C | COc1ccc([C@@H]2c3ccccc3C[C@@H]3CC(=O)N(C)CCN32)cc1 (racemic)
100 | 118 to 120 °C | OCc1cccn2cc(C(F)(F)F)nc12
101 | 45 to 47 °C | OC(c1ccc(F)cc1)c1cccnc1 (configuration not stated)
102 | 157 °C | N#Cc1c(Cl)nc2ccccc2c1Cl
